“And” between values parts separate entries of the source, which are not always exact repeats. Identical values can stand only once. Like-named read-outs stand apart in the source and are kept apart here.
Tests used:
MRC-5 cells = experiment: Cytotoxicity in MRC-5 cells; conditions: MRC-5, plus 0.5 uM efflux inhibitor; one value per run date (N=3)
MDR1/P-gp = MDR1/P-gp (Homo sapiens, UniProt P08183); experiment: Transporter inhibition using membrane vesicles; conditions: for % PGP Uptake Activity: uptake of N-methyl quinidine by MDR1, single replicates
Chain of MDR1/P-gp (P08183 whole entry): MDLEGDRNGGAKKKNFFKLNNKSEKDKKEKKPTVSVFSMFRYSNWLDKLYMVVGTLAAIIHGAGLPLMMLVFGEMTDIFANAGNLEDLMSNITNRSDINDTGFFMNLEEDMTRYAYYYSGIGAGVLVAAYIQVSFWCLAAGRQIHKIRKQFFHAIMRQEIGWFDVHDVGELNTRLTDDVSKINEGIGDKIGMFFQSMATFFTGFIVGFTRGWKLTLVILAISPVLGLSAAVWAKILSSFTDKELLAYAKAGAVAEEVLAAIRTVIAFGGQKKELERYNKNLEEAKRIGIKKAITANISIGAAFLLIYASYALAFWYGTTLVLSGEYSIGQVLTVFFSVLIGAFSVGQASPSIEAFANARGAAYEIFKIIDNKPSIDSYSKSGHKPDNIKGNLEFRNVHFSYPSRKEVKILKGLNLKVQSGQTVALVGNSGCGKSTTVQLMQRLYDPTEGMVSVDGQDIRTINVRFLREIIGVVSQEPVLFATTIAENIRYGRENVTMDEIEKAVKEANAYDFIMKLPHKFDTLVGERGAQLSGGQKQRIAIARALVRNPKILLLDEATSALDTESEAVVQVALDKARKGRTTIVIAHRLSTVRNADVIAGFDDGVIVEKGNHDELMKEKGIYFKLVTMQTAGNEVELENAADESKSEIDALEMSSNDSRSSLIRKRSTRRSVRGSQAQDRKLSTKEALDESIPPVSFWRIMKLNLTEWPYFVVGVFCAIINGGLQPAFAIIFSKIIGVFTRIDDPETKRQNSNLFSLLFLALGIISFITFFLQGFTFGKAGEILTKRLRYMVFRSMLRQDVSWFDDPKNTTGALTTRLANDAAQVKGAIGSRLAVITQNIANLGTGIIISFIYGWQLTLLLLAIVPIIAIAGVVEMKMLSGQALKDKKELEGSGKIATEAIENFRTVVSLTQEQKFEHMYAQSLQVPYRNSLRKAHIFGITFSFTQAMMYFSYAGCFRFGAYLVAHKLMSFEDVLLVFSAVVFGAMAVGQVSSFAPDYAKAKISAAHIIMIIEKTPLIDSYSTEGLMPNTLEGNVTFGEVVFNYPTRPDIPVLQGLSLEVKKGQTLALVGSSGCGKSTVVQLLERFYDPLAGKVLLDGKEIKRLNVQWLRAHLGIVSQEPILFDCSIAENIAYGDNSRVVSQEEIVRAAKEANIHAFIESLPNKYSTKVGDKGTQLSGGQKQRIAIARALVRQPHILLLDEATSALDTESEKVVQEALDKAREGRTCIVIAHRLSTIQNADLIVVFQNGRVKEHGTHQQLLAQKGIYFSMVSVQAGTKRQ

[1] = Plasma protein binding by equilibrium dialysis; conditions: human plasma; for fraction unbound at 6 h, 3.44 uM / fraction unbound at 6 h: human, plasma
[2] = Plasma protein binding by equilibrium dialysis; conditions: rat plasma, 3.44 uM; for fraction unbound at 6 h, 3.44 uM: rat, plasma
CYP2C8 = target: T1, CYP2C8 (Homo sapiens, UniProt P10632); experiment: Reversible CYP inhibition in human liver microsomes; conditions: for activity at 0.01 µM / activity at 0.158 µM / activity at 0.398 µM / activity at 1 µM / activity at 15.8 µM / activity at 39.8 µM / activity at 100 µM: human, microsomes, pH 7.4, Percent of Control Activity
T1 sequence (P10632 1-490): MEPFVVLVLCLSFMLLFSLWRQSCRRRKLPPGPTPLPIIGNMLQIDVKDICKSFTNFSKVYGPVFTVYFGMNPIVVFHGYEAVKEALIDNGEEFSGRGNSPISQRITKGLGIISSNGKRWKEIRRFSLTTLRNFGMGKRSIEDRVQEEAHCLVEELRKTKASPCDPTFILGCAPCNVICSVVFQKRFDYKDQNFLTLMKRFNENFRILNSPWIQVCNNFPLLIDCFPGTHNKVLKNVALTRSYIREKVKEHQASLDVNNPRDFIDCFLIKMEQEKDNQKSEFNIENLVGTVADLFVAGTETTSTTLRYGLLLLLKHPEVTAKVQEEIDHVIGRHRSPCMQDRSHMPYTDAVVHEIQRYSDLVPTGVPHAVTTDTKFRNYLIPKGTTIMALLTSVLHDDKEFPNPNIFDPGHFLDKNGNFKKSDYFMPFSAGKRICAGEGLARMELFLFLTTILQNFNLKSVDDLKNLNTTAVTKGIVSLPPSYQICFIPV

OCT2 = target: T2, OCT2 (Homo sapiens, UniProt O15244); experiment: Transporter inhibition using transfected HEK293 cells; conditions: IC50, [14C]Metformin (20 µM)
T2 sequence (O15244 1-555): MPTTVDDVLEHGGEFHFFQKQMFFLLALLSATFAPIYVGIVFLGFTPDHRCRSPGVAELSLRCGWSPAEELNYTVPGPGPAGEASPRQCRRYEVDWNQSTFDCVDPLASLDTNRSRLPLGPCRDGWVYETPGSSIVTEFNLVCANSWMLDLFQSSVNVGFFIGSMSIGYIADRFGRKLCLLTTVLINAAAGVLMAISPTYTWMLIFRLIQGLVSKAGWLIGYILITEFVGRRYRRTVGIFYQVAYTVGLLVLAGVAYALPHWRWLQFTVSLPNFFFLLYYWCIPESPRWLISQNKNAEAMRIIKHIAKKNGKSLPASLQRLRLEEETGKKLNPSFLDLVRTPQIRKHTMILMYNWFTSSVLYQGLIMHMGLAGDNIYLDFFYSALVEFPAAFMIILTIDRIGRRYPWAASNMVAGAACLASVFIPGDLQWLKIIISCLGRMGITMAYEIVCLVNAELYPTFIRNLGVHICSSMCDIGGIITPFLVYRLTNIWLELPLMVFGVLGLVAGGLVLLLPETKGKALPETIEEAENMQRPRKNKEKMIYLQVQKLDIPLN

COc1cccc2[nH]c(C(=O)N[C@@H](CC(C)C)C(=O)N[C@@H](C[C@@H]3CCNC3=O)C(=O)COP(=O)(O)O)cc12 [PF-07304814]
CC50 (MRC-5 cells): > 100 µM | IC50 (MDR1/P-gp; IC50, N-methyl quinidine (0.2 µM)): > 300 µM | % PGP Uptake Activity (MDR1/P-gp; inhibitor concentration 0.0732 uM): 123.862% and 96.8629% and 149.319% | % PGP Uptake Activity (MDR1/P-gp; inhibitor concentration 0.2930 uM): 106.737% and 95.0116% and 107.663% | % PGP Uptake Activity (MDR1/P-gp; inhibitor concentration 1.1719 uM): 108.588% and 115.068% and 109.514% | % PGP Uptake Activity (MDR1/P-gp; inhibitor concentration 4.6875 uM): 120.159% and 118.308% and 119.234% | % PGP Uptake Activity (MDR1/P-gp; inhibitor concentration 18.7500 uM): 122.011% and 113.68% and 118.308% | % PGP Uptake Activity (MDR1/P-gp; inhibitor concentration 300.0000 uM): 73.875% and 64.7724% and 99.64% | Individual fraction unbound ([1]; 3.44 uM, replicates Day 1-3): 0.199 and 0.194 and 0.181 and 0.192 and 0.178 and 0.182 and 0.198 and 0.168 and 0.191 and 0.180 and 0.167 | fraction unbound at 6 h, 3.44 uM ([1]; pH 7.4, Fraction unbound, Geomean, 3.44 uM, n 12): 0.184 | fraction unbound at 6 h, 3.44 uM ([1]; pH 7.4, Individual fraction unbound, 3.44 uM, replicates Day 1-3): 0.186 | fraction unbound at 6 h ([1]; pH 7.4, Measured plasma fu / Human plasma fu): 0.184 | fraction unbound at 6 h ([1]; pH 7.4, Unbound fraction fu (%CV)): 0.184 | fraction unbound at 6 h, 3.44 uM ([1]; pH 7.4, fraction unbound Geomean, 3.44 uM, n=12): 0.184 | fraction unbound at 6 h, 3.44 uM ([2]; Sprague-Dawley, pH 7.4, fraction unbound Geomean, n=12): 0.379 | fraction unbound at 6 h, 3.44 uM ([2]; both, Sprague Dawley, pH 7.4, Individual fraction unbound, Sprague Dawley, male and female, Day 1): 0.404 | fraction unbound at 6 h, 3.44 uM ([2]; both, Sprague Dawley, pH 7.4, Individual fraction unbound, Sprague Dawley, male and female, Day 2): 0.362 | fraction unbound at 6 h, 3.44 uM ([2]; both, Sprague Dawley, pH 7.4, Individual fraction unbound, Sprague Dawley, male and female, Day 3): 0.404 | Individual fraction unbound ([2]; Sprague Dawley, male and female, Day 1): 0.384 and 0.405 and 0.491 | Individual fraction unbound ([2]; Sprague Dawley, male and female, Day 2): 0.301 and 0.338 and 0.325 | Individual fraction unbound ([2]; Sprague Dawley, male and female, Day 3): 0.406 and 0.385 and 0.381 | IC50 (CYP2C8): > 100 µM | IC50 (CYP2C8; Amodiaquine N-dealkylation, T30): > 100 µM | Percent of Control Activity (CYP2C8; CYP 2C8, 0.01 µM, 30-Minute Preincubation, 0.01 µM): 100.2% | Percent of Control Activity (CYP2C8; CYP 2C8, 0.01 µM, Zero-Minute Preincubation, 0.01 µM): 96.2% and 97.6% | Percent of Control Activity (CYP2C8; CYP 2C8, 0.158 µM, 30-Minute Preincubation, 0.158 µM): 96.6% and 95.8% | Percent of Control Activity (CYP2C8; CYP 2C8, 0.158 µM, Zero-Minute Preincubation, 0.158 µM): 91.2% and 95.2% | Percent of Control Activity (CYP2C8; CYP 2C8, 0.398 µM, 30-Minute Preincubation, 0.398 µM): 95.5% and 95.0% | Percent of Control Activity (CYP2C8; CYP 2C8, 0.398 µM, Zero-Minute Preincubation, 0.398 µM): 94.0% and 94.9% | Percent of Control Activity (CYP2C8; CYP 2C8, 1 µM, 30-Minute Preincubation, 1 µM): 96.0% and 95.0% | Percent of Control Activity (CYP2C8; CYP 2C8, 1 µM, Zero-Minute Preincubation, 1 µM): 93.7% | Percent of Control Activity (CYP2C8; CYP 2C8, 15.8 µM, 30-Minute Preincubation, 15.8 µM): 96.2% and 94.8% | Percent of Control Activity (CYP2C8; CYP 2C8, 15.8 µM, Zero-Minute Preincubation, 15.8 µM): 94.0% and 95.0% | Percent of Control Activity (CYP2C8; CYP 2C8, 39.8 µM, 30-Minute Preincubation, 39.8 µM): 94.8% and 91.6% | Percent of Control Activity (CYP2C8; CYP 2C8, 39.8 µM, Zero-Minute Preincubation, 39.8 µM): 94.6% | Percent of Control Activity (CYP2C8; CYP 2C8, 100 µM, 30-Minute Preincubation, 100 µM): 96.4% | Percent of Control Activity (CYP2C8; CYP 2C8, 100 µM, Zero-Minute Preincubation, 100 µM): 88.3% | activity at 0.01 µM (CYP2C8; CYP 2C8, 0.01 µM, 30-Minute Preincubation): 94.3% | activity at 0.01 µM (CYP2C8; CYP 2C8, 0.01 µM, Zero-Minute Preincubation): 95.1% | activity at 0.158 µM (CYP2C8; CYP 2C8, 0.158 µM, 30-Minute Preincubation): 90.5% | activity at 0.158 µM (CYP2C8; CYP 2C8, 0.158 µM, Zero-Minute Preincubation): 91.3% | activity at 0.398 µM (CYP2C8; CYP 2C8, 0.398 µM, 30-Minute Preincubation): 92.1% | activity at 0.398 µM (CYP2C8; CYP 2C8, 0.398 µM, Zero-Minute Preincubation): 95.4% | activity at 1 µM (CYP2C8; CYP 2C8, 1 µM, 30-Minute Preincubation): 91.8% | activity at 1 µM (CYP2C8; CYP 2C8, 1 µM, Zero-Minute Preincubation): 92.1% | activity at 15.8 µM (CYP2C8; CYP 2C8, 15.8 µM, 30-Minute Preincubation): 88.9% | activity at 15.8 µM (CYP2C8; CYP 2C8, 15.8 µM, Zero-Minute Preincubation): 89.3% | activity at 39.8 µM (CYP2C8; CYP 2C8, 39.8 µM, 30-Minute Preincubation): 88.9% | activity at 39.8 µM (CYP2C8; CYP 2C8, 39.8 µM, Zero-Minute Preincubation): 87% | activity at 100 µM (CYP2C8; CYP 2C8, 100 µM, 30-Minute Preincubation): 89.5% | activity at 100 µM (CYP2C8; CYP 2C8, 100 µM, Zero-Minute Preincubation): 85.6% | IC50 (OCT2): > 300 µM
